“And” between values parts separate entries of the source, which are not always exact repeats. Equal values may be shown once. Inconclusive results and toxic doses are left out.
System: BDF1 mice, P388 leukemia ip, median survival T/C
Assay: NCI In Vivo Anticancer Drug Screen. Data for tumor model P388 Leukemia (intraperitoneal) in B6D2F1 (BDF1) mice
Settings: endpoint: median survival time, higher = longer survival
Outline: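 Mice carrying the transplantable tumour receive compound or vehicle. Survival is followed in each arm, and the treated measure is divided by the vehicle measure.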

[1] = dose: 100.0 mg/kg/injection, schedule: Q01DX009 (ip), vehicle: saline with Tween-80
[2] = dose: 200.0 mg/kg/injection, schedule: Q01DX009 (ip), vehicle: saline with Tween-80
[3] = dose: 400.0 mg/kg/injection, schedule: Q01DX009 (ip), vehicle: saline with Tween-80
[4] = dose: 25.0 mg/kg/injection, schedule: Q01DX009 (ip), vehicle: saline with Tween-80
[5] = dose: 100.0 mg/kg/injection, schedule: Q04DX002 (ip), vehicle: saline with Tween-80
[6] = dose: 200.0 mg/kg/injection, schedule: Q04DX002 (ip), vehicle: saline with Tween-80
[7] = dose: 400.0 mg/kg/injection, schedule: Q04DX002 (ip), vehicle: saline with Tween-80
[8] = dose: 50.0 mg/kg/injection, schedule: Q01DX009 (ip), vehicle: saline with Tween-80
[9] = dose: 100.0 mg/kg/injection, schedule: Q04DX003 (ip), vehicle: Klucel (hydroxypropylcellulose) (HPC)
[10] = dose: 200.0 mg/kg/injection, schedule: Q04DX003 (ip), vehicle: Klucel (hydroxypropylcellulose) (HPC)
[11] = dose: 400.0 mg/kg/injection, schedule: Q04DX003 (ip), vehicle: Klucel (hydroxypropylcellulose) (HPC)
[12] = dose: 12.5 mg/kg/injection, schedule: Q01DX009 (ip), vehicle: saline with Tween-80
[13] = dose: 100.0 mg/kg/injection, schedule: Q01DX009 (ip), vehicle: saline
[14] = dose: 100.0 mg/kg/injection, schedule: Q04DX003 (ip), vehicle: saline with Tween-80
[15] = dose: 400.0 mg/kg/injection, schedule: Q04DX003 (ip), vehicle: saline with Tween-80

O=C(C(=O)c1ccc(Br)cc1)c1ccc(Br)cc1
T/C [1]: 96 % of control | T/C [2]: 98 % of control | T/C [3]: 98 % of control

CC(=O)NC1C([Se][As](C)C)OC(COC(C)=O)C(OC(C)=O)C1OC(C)=O (centres undefined)
T/C (dose: 6.25 mg/kg/injection, schedule: Q01DX009 (ip), vehicle: saline with Tween-80): 116 % of control | T/C [4]: 115 % of control

CC(CC(Sc1ccccc1)Sc1ccccc1)CC(Sc1ccccc1)Sc1ccccc1
T/C [5]: 100 % of control | T/C [6]: 92 % of control | T/C [7]: 106 % of control

Cc1cnc2c(C)cccc2c1/C=C/c1ccc(N(C)C)cc1
T/C [8]: 116 % of control | T/C [1]: 116 % of control | T/C [2]: 103 % of control

Clc1cc(Cl)c(I)c(Cl)c1
T/C [1]: 92 % of control | T/C [9]: 100 % of control | T/C [2]: 89 % of control | T/C [10]: 100 % of control | T/C [3]: 96 % of control | T/C [11]: 91 % of control

NC(N)=NC(N)=Nc1ccc(-c2ccc(N=C(N)N=C(N)N)cc2)cc1
T/C [12]: 151 % of control | T/C [4]: 89 % of control

O=C(O)C1C2CCCCC21 (centres undefined)
T/C [1]: 109 % of control | T/C [13]: 113 % of control | T/C [2]: 100 % of control | T/C (dose: 200.0 mg/kg/injection, schedule: Q01DX009 (ip), vehicle: saline): 109 % of control | T/C [3]: 95 % of control | T/C (dose: 400.0 mg/kg/injection, schedule: Q01DX009 (ip), vehicle: saline): 104 % of control

CN(C)C=O.CN(C)C=O.[Cl][Sn]([Cl])([Cl])[Cl]
T/C (dose: 25.0 mg/kg/injection, schedule: Q01DX009 (ip), vehicle: Klucel (hydroxypropylcellulose) (HPC)): 100 % of control | T/C (dose: 50.0 mg/kg/injection, schedule: Q01DX009 (ip), vehicle: Klucel (hydroxypropylcellulose) (HPC)): 105 % of control | T/C (dose: 75.0 mg/kg/injection, schedule: Q04DX003 (ip), vehicle: Klucel (hydroxypropylcellulose) (HPC)): 109 % of control | T/C (dose: 100.0 mg/kg/injection, schedule: Q01DX009 (ip), vehicle: Klucel (hydroxypropylcellulose) (HPC)): 100 % of control | T/C (dose: 150.0 mg/kg/injection, schedule: Q04DX003 (ip), vehicle: Klucel (hydroxypropylcellulose) (HPC)): 86 % of control

O=C(O)CCCCCCCCC(=O)O
T/C [8]: 98 % of control | T/C [1]: 98 % of control | T/C [2]: 94 % of control | T/C [3]: 93 % of control

CN=C1N[N+]2=C(C)CCCC2S1 (centres undefined)
T/C (dose: 25.0 mg/kg/injection, schedule: Q01DX009 (ip), vehicle: saline): 97 % of control | T/C (dose: 50.0 mg/kg/injection, schedule: Q01DX009 (ip), vehicle: saline): 91 % of control | T/C [13]: 99 % of control

CCNC(C)(C)C(SS(=O)(=O)O)c1cccs1 (centres undefined)
T/C (dose: 100.0 mg/kg/injection, schedule: Q01DX009 (ip), vehicle: water): 121 % of control | T/C (dose: 100.0 mg/kg/injection, schedule: Q04DX003 (ip), vehicle: water): 102 % of control | T/C (dose: 200.0 mg/kg/injection, schedule: Q01DX009 (ip), vehicle: water): 121 % of control | T/C (dose: 200.0 mg/kg/injection, schedule: Q04DX003 (ip), vehicle: water): 111 % of control | T/C (dose: 400.0 mg/kg/injection, schedule: Q04DX003 (ip), vehicle: water): 93 % of control

N#[N+]c1cnc([O-])[nH]c1=O
T/C (dose: 1.25 mg/kg/injection, schedule: Q01DX010 (ip), vehicle: saline): 175 % of control | T/C (dose: 2.5 mg/kg/injection, schedule: Q01DX010 (ip), vehicle: saline): 185 % of control | T/C (dose: 5.0 mg/kg/injection, schedule: Q01DX010 (ip), vehicle: saline): 172 % of control and 210 % of control | T/C (dose: 10.0 mg/kg/injection, schedule: Q01DX010 (ip), vehicle: saline): 240 % of control and 177 % of control

O=S(=O)(NC1CCCCC1)c1ccccc1
T/C (dose: 75.0 mg/kg/injection, schedule: Q01DX009 (ip), vehicle: saline with Tween-80): 90 % of control | T/C [14]: 95 % of control | T/C (dose: 150.0 mg/kg/injection, schedule: Q01DX009 (ip), vehicle: saline with Tween-80): 90 % of control | T/C (dose: 300.0 mg/kg/injection, schedule: Q01DX009 (ip), vehicle: saline with Tween-80): 95 % of control | T/C [15]: 100 % of control

CC1(C)CCCC(Cl)(C(Cl)c2ccccc2)C1=O (centres undefined)
T/C (dose: 75.0 mg/kg/injection, schedule: Q01DX001 (ip), vehicle: other): 100 % of control | T/C (dose: 150.0 mg/kg/injection, schedule: Q01DX001 (ip), vehicle: other): 95 % of control | T/C (dose: 300.0 mg/kg/injection, schedule: Q01DX001 (ip), vehicle: other): 95 % of control

Cc1cc(C)c(C)c(Br)c1C
T/C [9]: 95 % of control | T/C [10]: 100 % of control | T/C [11]: 100 % of control

O=C(Cn1ccc(=O)[nH]c1=O)Nc1nccs1
T/C (dose: 3.12 mg/kg/injection, schedule: Q04DX003 (ip), vehicle: saline): 93 % of control | T/C (dose: 6.25 mg/kg/injection, schedule: Q04DX003 (ip), vehicle: saline): 107 % of control and 121 % of control | T/C (dose: 12.5 mg/kg/injection, schedule: Q04DX003 (ip), vehicle: saline): 110 % of control and 121 % of control | T/C (dose: 25.0 mg/kg/injection, schedule: Q04DX003 (ip), vehicle: saline): 109 % of control and 121 % of control

CN(C)c1ccc(/C=C/c2ccccn2)cc1
T/C [12]: 95 % of control | T/C [4]: 95 % of control

O=C1C=C(Nc2ccc(Cl)cc2)C(Nc2ccc(Cl)cc2)=CC1=O
T/C (dose: 62.5 mg/kg/injection, schedule: Q01DX009 (ip), vehicle: saline with Tween-80): 89 % of control | T/C (dose: 125.0 mg/kg/injection, schedule: Q01DX009 (ip), vehicle: saline with Tween-80): 87 % of control | T/C (dose: 250.0 mg/kg/injection, schedule: Q01DX009 (ip), vehicle: saline with Tween-80): 91 % of control

CC(C)(Br)C(=O)c1ccc(Cl)s1
T/C [8]: 101 % of control | T/C [1]: 111 % of control | T/C [14]: 109 % of control | T/C [2]: 119 % of control | T/C (dose: 200.0 mg/kg/injection, schedule: Q04DX003 (ip), vehicle: saline with Tween-80): 115 % of control | T/C [3]: 119 % of control | T/C [15]: 107 % of control

Cc1cc2c([nH]c1=O)C(=O)c1c(O)cccc1C2=O
T/C (dose: 2.5 mg/kg/injection, schedule: Q01DX009 (ip), vehicle: Klucel (hydroxypropylcellulose) (HPC)): 103 % of control | T/C (dose: 5.0 mg/kg/injection, schedule: Q01DX009 (ip), vehicle: Klucel (hydroxypropylcellulose) (HPC)): 108 % of control | T/C (dose: 10.0 mg/kg/injection, schedule: Q01DX009 (ip), vehicle: Klucel (hydroxypropylcellulose) (HPC)): 103 % of control | T/C (dose: 20.0 mg/kg/injection, schedule: Q01DX009 (ip), vehicle: Klucel (hydroxypropylcellulose) (HPC)): 104 % of control | T/C (dose: 40.0 mg/kg/injection, schedule: Q01DX009 (ip), vehicle: Klucel (hydroxypropylcellulose) (HPC)): 95 % of control | T/C (dose: 80.0 mg/kg/injection, schedule: Q01DX009 (ip), vehicle: Klucel (hydroxypropylcellulose) (HPC)): 115 % of control

Cc1ccc(C(=Nc2ccccc2)c2ccccc2C)cc1
T/C [5]: 88 % of control and 100 % of control | T/C [6]: 91 % of control | T/C [7]: 86 % of control

O=[N+]([O-])c1cc([N+](=O)[O-])c2ccccc2c1NS(=O)(=O)c1ccc(Cl)c(Cl)c1Cl
T/C [8]: 104 % of control | T/C [1]: 120 % of control

O=c1[nH]c(=S)c2c3c(sc2[nH]1)CCCC3
T/C (dose: 75.0 mg/kg/injection, schedule: Q04DX003 (ip), vehicle: saline sonified): 100 % of control | T/C (dose: 150.0 mg/kg/injection, schedule: Q04DX003 (ip), vehicle: saline sonified): 100 % of control | T/C (dose: 300.0 mg/kg/injection, schedule: Q04DX003 (ip), vehicle: saline sonified): 100 % of control

CN(C)c1ccc(/C=C\c2ccnc3ccccc23)cc1
T/C (dose: 1.5 mg/kg/injection, schedule: Q01DX010 (ip), vehicle: saline): 100 % of control | T/C (dose: 3.0 mg/kg/injection, schedule: Q01DX010 (ip), vehicle: saline): 95 % of control | T/C (dose: 6.0 mg/kg/injection, schedule: Q01DX010 (ip), vehicle: saline): 100 % of control | T/C (dose: 12.0 mg/kg/injection, schedule: Q01DX010 (ip), vehicle: saline): 109 % of control

CC(CS(=O)(=O)O)N1CCN(CCO)CC1 (centres undefined)
T/C (dose: 100.0 mg/kg/injection, schedule: Q04DX003 (ip), vehicle: saline): 95 % of control | T/C (dose: 200.0 mg/kg/injection, schedule: Q04DX003 (ip), vehicle: saline): 100 % of control | T/C (dose: 400.0 mg/kg/injection, schedule: Q04DX003 (ip), vehicle: saline): 100 % of control

Source: PubChem BioAssay AID328 (DTP/NCI, 2004)
